{"source": "patent US20240226302A1", "about": "“BIODEGRADABLE LIPIDS AND FORMULATIONS FOR INTRAMUSCULAR, IN VITRO, AND EX VIVO TRANSFECTION OF MRNA” (Massachusetts Institute of Technology, priority 2022, published 2024)", "key": {"mice": {"system": "mice", "experiment": "Intramuscular injection of LNPs loaded with firefly luciferase mRNA, 0.25 mg/kg, luciferase expression", "format": "in vivo", "conditions": "for potency compared to MD-1 (luciferase expression): 0.25 mg/kg Fluc mRNA", "protocol": "(§1) LNPs for in vitro studies and intramuscular injections were prepared by hand mixing. The lipid components were dissolved in ethanol and, separately, mRNA encoding for firefly luciferase (fLuc) was diluted into a solution of 10 mM citrate pH 3.0 at a concentration of […]. The two solutions were mixed in a 3:1 water:ethanol volume ratio by repeatedly pipetting up and down. For intravenous studies, nanoparticles were instead formed by mixing the ethanol and aqueous phases with a microfluidic chip as described previously.\nThe in vivo potency of the ionizable lipids was screened through intramuscular injection of LNPs loaded with mRNA encoding firefly luciferase protein. These LNPs were formulated with a molar composition of (35:16:46.5:2.5) using one of the synthesized ionizable lipids, DOPE as a helper lipid, cholesterol, and DMPE-PEG. Ionizable lipid AMG104 was chosen due to high in vitro mRNA transfection ability. mRNA-loaded LNPs were intramuscularly administered in mice at a dose of 0.25 mg/kg (5 μg) and expression of luciferase protein was monitored at 6 hours (0.25 day), and day 1, 2, 3, 5 and 7.\nAdditional lipids were synthesized varying length of the hydrophobic tail with or without one alkene or by varying the location of the internal alkene near or away from the ester linkage. The number of carbons on the amine headgroup was also varied (FIG. 4). […] The luciferase expression was monitored at 6 h, 24 h, and 48 h time points after intramuscular administration of Fluc mRNA dosed at 0.25 mg/kg formulated with various LNPs containing these lipids."}, "HeLa cells": {"system": "HeLa cells", "experiment": "In vitro full factorial DOE formulation screening of LNPs, luciferase expression, Bright-Glo assay", "format": "cell-based", "protocol": "as §1\nHeLa cells were plated on a white, flat-bottom 96 well plate (Corning, Corning, NY) at a density of 15k cells/well and allowed to recover for 24 hrs. Each well was then dosed with 150 ng of mRNA, and, after 24 hrs., luciferase expression was determined using a Bright-Glo assay (Promega, Madison, WI). The first generation of ionizable lipids was screened in this manner and the results are shown as performance relative to a positive control MD-1^3 in a heatmap in FIG. 2.\nFor intravenous experiments, design of experiments (DOE) was used to systematically vary the ratios of each of the LNP components for lipid AMG104. First, an initial screening of each of the components was performed using a definitive screening design. This experimental design allows for identification of the LNP components which have the greatest effect on delivery potency. […]"}, "Jurkat cells": {"system": "Jurkat cells", "experiment": "mRNA (luciferase) transfection of Jurkat cells by LNPs, Bright-Glo assay", "format": "cell-based, human", "conditions": "150 ng mRNA", "protocol": "as §1\nBased on high transfection potency in Hela cells, some of the potent lipids were tested for mRNA delivery efficacy in Jurkat cells, an immortalized human T-cell line for potential CAR-T therapeutic applications. Jurkat cells were cultured in a RPMI-1640 medium with L-glutamine supplemented with 10% bovine serum and 1% penicillin-streptomycin. Jurkat cells were plated on a white, flat-bottom 96 well plate (Corning, Corning, NY) at a density of 100k cells/well and co-incubated dosed with 150 ng of mRNA. Luciferase expression in the cells was determined after 24 hours using a Bright-Glo assay (Promega, Madison, WI) and normalized to cell viability (Multi-tox, Promega)."}, "[1]": {"conditions": "comparison, FIG. 15B, reference 5 (Hassett et al.); cited from earlier work"}, "[2]": {"experiment": "Intramuscular route screening with FLuc mRNA (0.1 μg), luciferase expression", "format": "in vivo", "conditions": "FLuc mRNA 0.1 μg (FIG. 12)", "protocol": "In addition, the importance of the OH group was evaluated. The importance of the orientation of the ester and OH was also evaluated (FIG. 10). The additional tails were also used to synthesize AMG1058, AMG1059, and AMG1041OHD. From a screening experiment using 0.1 μg FLuc mRNA dose, it was determined that the ester's specific orientation and the OH groups' location are important for G41 potency and that minor alterations can dramatically decrease potency.\nThe potency of these lipids was tested in vivo via intramuscular administration. AMG1041OHD was not tested in vivo due to difficulty in formulating these particles. The FLuc mRNA (0.1 μg) intramuscular route screening data is shown in FIG. 12 for the AMG1041 derivative lipids."}, "[3]": {"experiment": "Lipid clearance monitored by LC-MS after intramuscular injection", "format": "in vivo", "conditions": "BALB/C mice, LC-MS (FIG. 15A)", "protocol": "AMG1041 lipid clearance was monitored by LC-MS after intramuscular injection to BALB/C mice at various time points. AMG1041 was cleared within 24 hours from the injection site in the muscle (FIG. 15A). As a comparison, SM-102 was detectable even after 40 hours (FIG. 15B).^5 https://www.ncbi.nlm.nih.gov/pmc/articles/PMC6383180/)."}, "ovalbumin": {"system": "ovalbumin", "experiment": "Vaccination against ovalbumin by intramuscular injection of Ova mRNA, antibody titers and Elispot", "format": "in vivo", "protocol": "AMG1041 was tested for vaccination against ovalbumin."}}, "data": [{"smiles": "CCCCCC/C=C\\CCCCCCCC(=O)OCC(O)CN1CCCN(CC(O)COC(=O)CCCCCCC/C=C\\CCCCCC)CCN(CC(O)COC(=O)CCCCCCC/C=C\\CCCCCC)CCCN(CC(O)COC(=O)CCCCCCC/C=C\\CCCCCC)CC1", "note": "(stereo not shown) [AMG1043]", "values": [{"measurement": "potency compared to MD-1 (luciferase expression)", "setting": "mice", "result": "nearly as potent as"}]}, {"smiles": "CCCCCCCC/C=C\\CCCCCCCC(=O)OCC(O)CN1CCCN(CC(O)COC(=O)CCCCCCC/C=C\\CCCCCCCC)CCN(CC(O)COC(=O)CCCCCCC/C=C\\CCCCCCCC)CCCN(CC(O)COC(=O)CCCCCCC/C=C\\CCCCCCCC)CC1", "note": "(stereo not shown) [AMG104]", "values": [{"measurement": "in vitro performance of formulation 2 relative to the original (control) formulation 1", "setting": "HeLa cells; AMG104 LNP formulation 2 (helper 35%, ionizable lipid 30%, cholesterol 32.5%, DMPE-PEG 2.5%, lipid:mRNA 10:1) vs formulation 1 (16/35/46.5)", "result": "~8.2", "unit": "×"}, {"measurement": "in vitro transfection", "setting": "HeLa cells; AMG104 using formulation 2", "result": "extremely potent in vitro transfection"}, {"measurement": "luciferase protein expression in mice", "setting": "mice; 0.25 mg/kg (5 μg) fLuc mRNA, LNP 35:16:46.5:2.5 ionizable lipid:DOPE:cholesterol:DMPE-PEG", "result": "high luciferase protein expression"}, {"measurement": "potency compared to MD-1 (luciferase expression)", "setting": "mice", "result": "comparable to that of MD1"}, {"measurement": "transfection in jurkat cells as compared to MD-1 lipid", "setting": "Jurkat cells; 24 hours (FIG. 3)", "result": "increased transfection"}, {"measurement": "mRNA transfection compared to commercially used lipofectamine positive controls", "setting": "Jurkat cells; 24 hours, normalized to cell viability (FIG. 3)", "result": "higher mRNA transfection"}]}, {"smiles": "CCCCCCCCCCCOC(=O)CCCCCN(CCO)CCCCCCCC(=O)OC(CCCCCCCC)CCCCCCCC", "note": "[SM-102]", "values": [{"measurement": "time after which lipid was still detectable", "setting": "[1]", "result": "> 40", "unit": "h"}]}, {"smiles": "C/C=C\\C/C=C\\CCCCCC(=O)OCC(O)CN1CCCN(CC(O)COC(=O)CCCCC/C=C\\C/C=C\\C)CCN(CC(O)COC(=O)CCCCC/C=C\\C/C=C\\C)CCCN(CC(O)COC(=O)CCCCC/C=C\\C/C=C\\C)CC1", "note": "(stereo not shown) [AMG1056]", "values": [{"measurement": "luciferase expression compared to control sample with MD-1", "setting": "[2]", "result": "performed similarly"}]}, {"smiles": "CCCCCC/C=C\\CCCCCCCCCC(=O)OCC(O)CN1CCCN(CC(O)COC(=O)CCCCCCCCC/C=C\\CCCCCC)CCN(CC(O)COC(=O)CCCCCCCCC/C=C\\CCCCCC)CCCN(CC(O)COC(=O)CCCCCCCCC/C=C\\CCCCCC)CC1", "note": "(stereo not shown) [AMG1044]", "values": [{"measurement": "potency compared to MD-1 (luciferase expression)", "setting": "mice", "result": "nearly as potent as"}]}, {"smiles": "CCCCCC/C=C\\CCCC(=O)OCC(O)CN1CCCN(CC(O)COC(=O)CCC/C=C\\CCCCCC)CCN(CC(O)COC(=O)CCC/C=C\\CCCCCC)CCCN(CC(O)COC(=O)CCC/C=C\\CCCCCC)CC1", "note": "(stereo not shown) [AMG1041]", "values": [{"measurement": "time to clearance from the injection site in the muscle", "setting": "[3]", "result": "≤ 24", "unit": "h"}, {"measurement": "cellular response from Elispot assay as compared to SM-102 and MD-1", "setting": "ovalbumin; after day 28 (FIG. 14)", "result": "strong cellular response"}, {"measurement": "antibody titers, potency compared to SM-102", "setting": "ovalbumin; day 14, intramuscular, varying Ova mRNA doses (FIG. 14)", "result": "higher potency compared to SM-102"}, {"measurement": "luciferase expression, times higher", "setting": "mice; 0.25 mg/kg Fluc mRNA (FIG. 5A), comparator not stated, MD-1 named in the same sentence", "result": "2-3 times"}]}, {"smiles": "CCCC/C=C\\CCCCCCCC(=O)OCC(O)CN1CCCN(CC(O)COC(=O)CCCCCCC/C=C\\CCCC)CCN(CC(O)COC(=O)CCCCCCC/C=C\\CCCC)CCCN(CC(O)COC(=O)CCCCCCC/C=C\\CCCC)CC1", "note": "(stereo not shown) [AMG1042]", "values": [{"measurement": "potency compared to MD-1 (luciferase expression)", "setting": "mice", "result": "nearly as potent as"}]}, {"smiles": "CCCC/C=C\\C/C=C\\CCC(=O)OCC(O)CN1CCCN(CC(O)COC(=O)CC/C=C\\C/C=C\\CCCC)CCN(CC(O)COC(=O)CC/C=C\\C/C=C\\CCCC)CCCN(CC(O)COC(=O)CC/C=C\\C/C=C\\CCCC)CC1", "note": "(stereo not shown) [AMG1053]", "values": [{"measurement": "luciferase expression compared to control sample with MD-1", "setting": "[2]", "result": "nearly as well as the control sample with MD-1"}]}]}
